# Values quoted from earlier work, collected in patent publication US20060147391A1, “Composition for enhancing oral health” (priority 2002, published 2006).
# System: oral microorganisms (intraoral bacteria such as Streptococcus mutans, Streptococcus sobrinus and Porphyromonas gingivalis)
# Conditions: reported result in vitro (Korean publications, WO 00/67711)
smiles,measurement,value
CC(C)=CCC[C@@H](C)c1ccc(C)c(O)c1 [Xanthorrhizol],antibacterial activity against oral microorganisms,excellent antibacterial activity
